{"source": "patent US20160108038A1", "about": "“BICYCLIC ARYL SULFIDE AND ARYL SULFOXIDE DERIVATIVES AS PEST CONTROL AGENT” (BAYER CROPSCIENCE AKTIENGESELLSCHAFT, priority 2013, published 2016)", "key": {"[1]": {"assay": "log P determination by HPLC on reversed-phase columns (C 18), analogous to OECD Guideline 117", "assay_type": "physicochemical", "conditions": "for chromatographic logP: reversed-phase C18 HPLC column", "procedure": "The log P values were determined analogously to OECD Guideline 117 (EC Directive 92/69/EEC) by HPLC (high-performance liquid chromatography) using reversed-phase columns (C 18), by the following methods: [a] The LC-MS determination in the acidic range was effected at pH 2.7 with 0.1% aqueous formic acid and acetonitrile (contains 0.1% formic acid) as eluents; linear gradient from 10% acetonitrile to 95% acetonitrile. log P^[a] is also referred to as log P(HCOOH). [b] LC-MS determination in the neutral range was effected at pH 7.8 with 0.001 molar aqueous ammonium hydrogencarbonate solution and acetonitrile as eluents; linear gradient from 10% acetonitrile to 95% acetonitrile. log P^[…] is also referred to as log P(neutral)."}, "Tetranychus urticae": {"tested_on": "Tetranychus urticae", "assay": "Tetranychus urticae spray test, OP-resistant", "assay_type": "in vivo", "conditions": "500 g/ha, bean leaf discs, after 6 days", "procedure": "Tetranychus urticae—Spray Test, OP-Resistant\n(§1) To produce a suitable preparation of active compound, 1 part by weight of active compound is dissolved using the stated parts by weight of solvent and made up with water containing an emulsifier concentration of 1000 ppm until the desired concentration is attained. To produce further test concentrations, the preparation is diluted with emulsifier-containing water.\nDiscs of bean leaves (Phaseolus vulgaris) infested with all stages of the greenhouse red spider mite (Tetranychus urticae) are sprayed with an active compound preparation of the desired concentration.\nAfter 6 days, the efficacy in % is determined. 100% means that all the spider mites have been killed; 0% means that none of the spider mites have been killed."}, "Boophilus microplus": {"tested_on": "Boophilus microplus", "assay": "Boophilus microplus injection test", "assay_type": "in vivo", "conditions": "20 μg/animal, injection into engorged adult female cattle ticks, after 7 days; 100% = no fertile eggs", "procedure": "Boophilus microplus—Injection Test Solvent: dimethyl sulfoxide To produce a suitable preparation of active compound, 10 mg of active compound are mixed with 0.5 ml of solvent and the concentrate is diluted with solvent to the desired concentration. 1 μl of the active compound solution is injected into the abdomen of 5 engorged adult female cattle ticks (Boophilus microplus). The animals are transferred into dishes and kept in a climate-controlled room. Efficacy is assessed after 7 days by laying of fertile eggs. Eggs which are not visibly fertile are stored in a climate-controlled cabinet until the larvae hatch after about 42 days. An efficacy of 100% means that none of the ticks has laid any fertile eggs; 0% means that all the eggs are fertile."}, "Phaedon cochleariae": {"tested_on": "Phaedon cochleariae", "assay": "Phaedon cochleariae spray test", "assay_type": "in vivo", "conditions": "500 g/ha, Chinese cabbage leaf discs, after 7 days", "procedure": "Phaedon cochleariae—Spray Test\nas §1\nAfter 7 days, the efficacy in % is determined. 100% means that all the beetle larvae have been killed; 0% means that no beetle larvae have been killed."}, "Meloidogyne incognita": {"tested_on": "Meloidogyne incognita", "assay": "Meloidogyne incognita test", "assay_type": "in vivo", "conditions": "20 ppm, lettuce, after 14 days; 100% = no galls", "procedure": "Meloidogyne incognita Test Solvent: 125.0 parts by weight of acetone To produce a suitable preparation of active compound, 1 part by weight of active compound is mixed with the stated amount of solvent and the concentrate is diluted with water to the desired concentration. Vessels are filled with sand, active compound solution, an egg/larvae suspension of the southern root-knot nematode (Meloidogyne incognita) and lettuce seeds. The lettuce seeds germinate and the plants develop. The galls develop on the roots. After 14 days, the nematicidal efficacy in % is determined by the formation of galls. 100% means that no galls were found; 0% means that the number of galls on the treated plants corresponds to the untreated control."}, "[2]": {"conditions": "acidic range, pH 2.7, 0.1% aqueous formic acid and acetonitrile, read-out: logP(HCOOH)"}, "[3]": {"conditions": "neutral range, pH 7.8, 0.001 molar aqueous ammonium hydrogencarbonate and acetonitrile, read-out: logP(neutral)"}, "[4]": {"conditions": "acidic range, pH 2.7, 0.1% aqueous formic acid and acetonitrile"}, "[5]": {"conditions": "neutral range, pH 7.8, 0.001 molar aqueous ammonium hydrogencarbonate and acetonitrile"}}, "note": "Like-named read-outs stand apart in the source and are kept apart here.", "data": [{"smiles": "Cc1cc(F)c(NC(=O)c2cccnc2N)cc1SCC(F)(F)F", "note": "[2-Amino-N-{2-fluoro-4-methyl-5-[(2,2,2-trifluoroethyl)sulfanyl]phenyl}nicotinamide]", "values": [{"measurement": "chromatographic logP", "setting": "[1]; [2]", "result": 1.7}, {"measurement": "chromatographic logP", "setting": "[1]; [3]", "result": 2.71}]}, {"smiles": "Cc1nc2ncccc2c(=O)o1", "note": "[2-Methyl-4H-pyrido[2,3-d][1,3]oxazin-4-one]", "values": [{"measurement": "chromatographic logP", "setting": "[1]; [2]", "result": 0.42}, {"measurement": "chromatographic logP", "setting": "[1]; [3]", "result": 0.43}]}, {"smiles": "Cc1cc(F)c(-n2cnc3ccncc3c2=O)cc1SCC(F)(F)F", "note": "[Compound 1]", "values": [{"measurement": "efficacy (spider mites killed)", "setting": "Tetranychus urticae", "result": 100, "unit": "%"}, {"measurement": "logP(HCOOH)", "setting": "[1]; [4]", "result": 2.54}, {"measurement": "logP(neutral)", "setting": "[1]; [5]", "result": 2.56}]}, {"smiles": "Cc1cc(F)c(-n2cnc3ncccc3c2=O)cc1SCC(F)(F)F", "note": "[Compound 2, 3-{2-Fluoro-4-methyl-5-[(2,2,2-trifluoroethyl)sulfanyl]phenyl}-2-pyrido [2,3-d]pyrimidin-4(3H)-one]", "values": [{"measurement": "efficacy (spider mites killed)", "setting": "Tetranychus urticae", "result": 90, "unit": "%"}, {"measurement": "chromatographic logP", "setting": "[1]; [2]", "result": 2.43}, {"measurement": "chromatographic logP", "setting": "[1]; [3]", "result": 2.43}]}, {"smiles": "O=c1c2cccnc2ncn1-c1cc(SCC(F)(F)F)c(Cl)cc1Cl", "note": "[Compound 3]", "values": [{"measurement": "logP(HCOOH)", "setting": "[1]; [4]", "result": 2.73}, {"measurement": "logP(neutral)", "setting": "[1]; [5]", "result": 2.68}]}, {"smiles": "Cc1cc(C)c(-n2cnc3ncccc3c2=O)cc1SCC(F)(F)F", "note": "[Compound 4]", "values": [{"measurement": "efficacy (spider mites killed)", "setting": "Tetranychus urticae", "result": 100, "unit": "%"}, {"measurement": "logP(HCOOH)", "setting": "[1]; [4]", "result": 2.53}, {"measurement": "logP(neutral)", "setting": "[1]; [5]", "result": 2.54}]}, {"smiles": "Cc1cc(F)c(-n2cnc3ncccc3c2=O)cc1[S+]([O-])CC(F)(F)F", "note": "(stereo not drawn) [Compound 5, 3-{2-Fluoro-4-methyl-5-[(2,2,2-trifluoroethyl)sulfinyl]phenyl}pyrido[2,3-d]pyrimidin-4(3H)-one]", "values": [{"measurement": "efficacy (spider mites killed)", "setting": "Tetranychus urticae", "result": 90, "unit": "%"}, {"measurement": "chromatographic logP", "setting": "[1]; [2]", "result": 1.56}, {"measurement": "chromatographic logP", "setting": "[1]; [3]", "result": 1.56}]}, {"smiles": "Cc1cc(C)c([S+]([O-])CC(F)(F)F)cc1-n1cnc2ncccc2c1=O", "note": "(stereo not drawn) [Compound 6]", "values": [{"measurement": "efficacy (spider mites killed)", "setting": "Tetranychus urticae", "result": 100, "unit": "%"}, {"measurement": "efficacy (laying of fertile eggs)", "setting": "Boophilus microplus", "result": 100, "unit": "%"}, {"measurement": "logP(HCOOH)", "setting": "[1]; [4]", "result": 1.62}, {"measurement": "logP(neutral)", "setting": "[1]; [5]", "result": 1.61}]}, {"smiles": "O=c1c2cccnc2ncn1-c1cc([S+]([O-])CC(F)(F)F)c(Cl)cc1Cl", "note": "(stereo not drawn) [Compound 7]", "values": [{"measurement": "efficacy (spider mites killed)", "setting": "Tetranychus urticae", "result": 90, "unit": "%"}, {"measurement": "logP(HCOOH)", "setting": "[1]; [4]", "result": 1.98}, {"measurement": "logP(neutral)", "setting": "[1]; [5]", "result": 1.84}]}, {"smiles": "Cc1cc(F)c(-n2c(C)nc3ncccc3c2=O)cc1SCC(F)(F)F", "note": "[Compound 8, 3-{2-Fluoro-4-methyl-5-[(2,2,2-trifluoroethyl)sulfanyl]phenyl}-2-mehtylpyrido[2,3-d]pyrimidin-4(3H)-one]", "values": [{"measurement": "efficacy (spider mites killed)", "setting": "Tetranychus urticae", "result": 100, "unit": "%"}, {"measurement": "chromatographic logP", "setting": "[1]; [2]", "result": 2.55}, {"measurement": "chromatographic logP", "setting": "[1]; [3]", "result": 2.52}]}, {"smiles": "Cc1cc(F)c(-n2cnc3cccnc3c2=O)cc1SCC(F)(F)F", "note": "[Compound 9]", "values": [{"measurement": "efficacy (spider mites killed)", "setting": "Tetranychus urticae", "result": 100, "unit": "%"}, {"measurement": "logP(HCOOH)", "setting": "[1]; [4]", "result": 2.33}]}, {"smiles": "Cc1cc(F)c(-n2c(C)nc3ncccc3c2=O)cc1[S+]([O-])CC(F)(F)F", "note": "(stereo not drawn) [Compound 10, 3-{2-Fluoro-4-methyl-5-[(2,2,2-trifluoroethyl)sulfinyl]phenyl}-2-mehtylpyrido[2,3-d]pyrimidin-4(3H)-one]", "values": [{"measurement": "efficacy (spider mites killed)", "setting": "Tetranychus urticae", "result": 100, "unit": "%"}, {"measurement": "chromatographic logP", "setting": "[1]; [2]", "result": 1.66}, {"measurement": "chromatographic logP", "setting": "[1]; [3]", "result": 1.64}]}, {"smiles": "Cc1cc(F)c(-n2cnc3cccnc3c2=O)cc1[S+]([O-])CC(F)(F)F", "note": "(stereo not drawn) [Compound 11]", "values": [{"measurement": "efficacy (beetle larvae killed)", "setting": "Phaedon cochleariae", "result": 100, "unit": "%"}, {"measurement": "efficacy (spider mites killed)", "setting": "Tetranychus urticae", "result": 100, "unit": "%"}, {"measurement": "logP(HCOOH)", "setting": "[1]; [4]", "result": 1.49}, {"measurement": "logP(neutral)", "setting": "[1]; [5]", "result": 1.46}]}, {"smiles": "Cc1cc(F)c(-n2cnc3cnccc3c2=O)cc1SCC(F)(F)F", "note": "[Compound 12]", "values": [{"measurement": "logP(HCOOH)", "setting": "[1]; [4]", "result": 2.55}, {"measurement": "logP(neutral)", "setting": "[1]; [5]", "result": 2.56}]}, {"smiles": "Cc1cc(F)c(-n2cnc3cnccc3c2=O)cc1[S+]([O-])CC(F)(F)F", "note": "(stereo not drawn) [Compound 13]", "values": [{"measurement": "efficacy (spider mites killed)", "setting": "Tetranychus urticae", "result": 100, "unit": "%"}, {"measurement": "logP(HCOOH)", "setting": "[1]; [4]", "result": 1.60}, {"measurement": "logP(neutral)", "setting": "[1]; [5]", "result": 1.63}]}, {"smiles": "Cc1cc(F)c(-n2cnc3ccncc3c2=O)cc1[S+]([O-])CC(F)(F)F", "note": "(stereo not drawn) [Compound 14]", "values": [{"measurement": "efficacy (spider mites killed)", "setting": "Tetranychus urticae", "result": 90, "unit": "%"}, {"measurement": "efficacy (laying of fertile eggs)", "setting": "Boophilus microplus", "result": 100, "unit": "%"}, {"measurement": "logP(HCOOH)", "setting": "[1]; [4]", "result": 1.61}, {"measurement": "logP(neutral)", "setting": "[1]; [5]", "result": 1.64}]}, {"smiles": "Cc1cc(Cl)c(-n2cnc3ncccc3c2=O)cc1SCC(F)(F)F", "note": "[Compound 15]", "values": [{"measurement": "logP(HCOOH)", "setting": "[1]; [4]", "result": 2.62}, {"measurement": "logP(neutral)", "setting": "[1]; [5]", "result": 2.62}]}, {"smiles": "Cc1cc(C)c(-n2c(C)nc3ncccc3c2=O)cc1SCC(F)(F)F", "note": "[Compound 16]", "values": [{"measurement": "logP(HCOOH)", "setting": "[1]; [4]", "result": 2.63}, {"measurement": "logP(neutral)", "setting": "[1]; [5]", "result": 2.60}]}, {"smiles": "Cc1cc(C)c([S+]([O-])CC(F)(F)F)cc1-n1c(C)nc2ncccc2c1=O", "note": "(stereo not drawn) [Compound 17]", "values": [{"measurement": "nematicidal efficacy (formation of galls)", "setting": "Meloidogyne incognita", "result": 90, "unit": "%"}, {"measurement": "efficacy (spider mites killed)", "setting": "Tetranychus urticae", "result": 90, "unit": "%"}, {"measurement": "logP(HCOOH)", "setting": "[1]; [4]", "result": 1.67}, {"measurement": "logP(neutral)", "setting": "[1]; [5]", "result": 1.67}]}, {"smiles": "Cc1cc(Cl)c(-n2cnc3ncccc3c2=O)cc1[S+]([O-])CC(F)(F)F", "note": "(stereo not drawn) [Compound 18]", "values": [{"measurement": "efficacy (spider mites killed)", "setting": "Tetranychus urticae", "result": 100, "unit": "%"}, {"measurement": "logP(HCOOH)", "setting": "[1]; [4]", "result": 1.77}, {"measurement": "logP(neutral)", "setting": "[1]; [5]", "result": 1.73}]}]}
